Measured values as given in US20090312352A1 (priority 2004, published 2009).

Key:
Assay in all cases: biochemical
YopH [1] = target: T1, YopH (Yersinia pestis, UniProt O68720); type: biochemical
HePTP = HePTP (Homo sapiens, UniProt P35236)
VHR = VHR (Homo sapiens, UniProt P51452)
YopH [2] = target: T1, YopH; type: binding
TCPTP = TCPTP (Homo sapiens, UniProt P17706)
VHX = VHX (Homo sapiens, UniProt Q9NRW4)
CD45 = CD45 (Homo sapiens, UniProt P08575)
VH1 = VH1 (Vaccinia virus, UniProt P07239)
LAR = LAR (Homo sapiens, UniProt P10586)
YopH [3] = target: T1, YopH
LMPTP B = LMPTP B (Homo sapiens, UniProt P24666)
PTP 1B = PTP 1B (Homo sapiens, UniProt P18031)

O=C1C=CC(=O)C(c2ccc(C(=O)O)cc2)=C1 [4-(3,6-dioxocyclohexa-1,4-dienyl)benzoic acid]
time-dependence of inhibition (YopH [1]): clearly showed a time-dependent inhibition

O=C1NC(=O)/C(=C\c2ccc(-c3cccc([N+](=O)[O-])c3)o2)S1 [Compound 5376305]
Ki (YopH [1]; Ki(u)): 50 µM

N=C1NC(=O)/C(=C\c2ccc(-c3cccc(C(=O)O)c3)o2)S1 [Compound 5377688]
Ki (YopH [1]; Ki(c)): 19.2 µM

O=C1NC(=O)/C(=C\c2ccco2)S1 [Compound 5377816]
YopH inhibition (in words) (YopH [1]): complete loss of YopH inhibition

O=C1NC(=O)C(=Cc2ccc(-c3ccc(O)c(C(=O)O)c3)o2)C(=O)N1 [Compound 5377894]
fold higher Ki value (YopH [1]): 12.5 fold
Ki (YopH [1]; Ki): 4.1 µM
Ki (YopH [1]; Ki(c)): 4.13 µM

O=C(O)c1cc(-c2ccc(C=C3C(=O)c4ccccc4C3=O)o2)ccc1O [Compound 5378650]
Ki (YopH [1]; Ki(c)): 3.2 µM

O=C(O)c1cc(-c2ccc(/C=N/n3cnnc3)o2)ccc1O [Compound 5381181]
Ki (YopH [1]; Ki(c)): 3.73 µM

O=C1NC(=S)NC(=O)C1=Cc1ccc(-c2ccc(C(=O)O)c(O)c2)o1 [Compound 5557271, 4-(5-((tetrahydro-4,6-dioxo-2-thioxopyrimidin-5(6H)-ylidene)methyl)furan-2-yl)-salicylic acid]
IC50 (HePTP): 32.4 µM
IC50 (VHR): 34.7 µM
Kd (YopH [2]): 0.33 µM
IC50 (TCPTP): 11 µM
IC50 (VHX): > 250 µM
IC50 (CD45): 1.7 µM
IC50 (VH1): > 250 µM
IC50 (LAR): 10.9 µM
IC50 (YopH [3]): 1.4 µM
IC50 (LMPTP B): > 250 µM
IC50 (PTP 1B): 9.7 µM
fold lower inhibitory constant than salicylic acid alone (YopH [1]): 2667 fold
Ki (YopH [1]; Ki): 0.33 µM
Ki (YopH [1]; Ki(c)): 0.33 µM

O=C1NC(=S)S/C1=C/c1ccc(-c2ccc(C(=O)O)cc2)o1 [Compound 5660015]
Ki (YopH [1]; Ki(c)): 19.7 µM

CCN1C(=O)/C(=C\c2ccc(-c3ccc(O)cc3)o2)SC1=S [Compound 5667408]
Ki (YopH [1]; Ki(c)): 38.6 µM
Ki (YopH [1]; Ki(u)): 55.7 µM

Cc1cc2nc3s/c(=C\c4ccc(-c5ccc(O)c(C(=O)O)c5)o4)c(=O)n3c2cc1C [Compound 5670901]
IC50 (HePTP): 32.6 µM
IC50 (VHR): 21.2 µM
Kd (YopH [2]): 0.54 µM
IC50 (TCPTP): 11 µM
IC50 (VHX): > 250 µM
IC50 (CD45): 2.5 µM
IC50 (VH1): > 250 µM
IC50 (LAR): 7.7 µM
IC50 (YopH [3]): 2 µM
IC50 (LMPTP B): > 250 µM
IC50 (PTP 1B): 7 µM
Ki (YopH [1]; Ki): 0.92 µM
Ki (YopH [1]; Ki(c)): 0.922 µM
Ki (YopH [1]; Ki(u)): 8.3 µM

Cc1cc(C)c2nc3s/c(=C\c4ccc(-c5ccc(O)c(C(=O)O)c5)o4)c(=O)n3c2c1 [Compound 5675844]
Ki (YopH [1]; Ki): 8.8 µM
Ki (YopH [1]; Ki(c)): 8.82 µM
Ki (YopH [1]; Ki(u)): 10.9 µM

O=C(Cn1nnc(-c2ccccc2)n1)N/N=C/c1ccc(-c2ccc(O)c(C(=O)O)c2)o1 [Compound 5680029]
IC50 (HePTP): 47.9 µM
IC50 (VHR): 31.6 µM
Kd (YopH [2]): 1.04 µM
IC50 (TCPTP): 22.7 µM
IC50 (VHX): 34.9 µM
IC50 (CD45): 15.1 µM
IC50 (VH1): > 250 µM
IC50 (LAR): 35.8 µM
IC50 (YopH [3]): 5.1 µM
IC50 (LMPTP B): > 250 µM
IC50 (PTP 1B): 14.3 µM
Ki (YopH [1]; Ki(c)): 2.8 µM
Ki (YopH [1]; Ki(u)): 8.9 µM

O=C(O)c1cccc(-c2ccc(/C=C3\SC(=S)N(Cc4ccccc4)C3=O)o2)c1 [Compound 5680282]
Ki (YopH [1]; Ki(c)): 17.7 µM
Ki (YopH [1]; Ki(u)): 42.8 µM

O=C1NC(=S)S/C1=C\c1ccc(-c2cc([N+](=O)[O-])ccc2O)o1 [Compound 5740279]
Ki (YopH [1]; Ki(c)): 17.1 µM
Ki (YopH [1]; Ki(u)): 16.5 µM

COc1ccc(C2=CC(=O)C=CC2=O)cc1 [Compound 5760449]
Ki (YopH [1]; Ki(c)): 6.52 ± 1.19 µM
Ki (YopH [1]; Ki(u)): 8.02 ± 0.589 µM

O=C1NC(=O)/C(=C/c2ccc(-c3ccc(O)c(C(=O)O)c3)o2)S1 [Compound 5842540]
IC50 (HePTP): 34.5 µM
IC50 (VHR): 27.5 µM
Kd (YopH [2]): 1.34 µM
IC50 (TCPTP): 30.2 µM
IC50 (VHX): 38.5 µM
IC50 (CD45): 5.7 µM
IC50 (VH1): > 250 µM
IC50 (LAR): 12.2 µM
IC50 (YopH [3]): 3.9 µM
IC50 (LMPTP B): 215 µM
IC50 (PTP 1B): 12 µM
Ki (YopH [1]; Ki(c)): 1.13 ± 0.198 µM
Ki (YopH [1]; Ki(u)): 14.1 ± 4.21 µM

CSCCC(C(=O)O)N1C(=O)/C(=C\c2ccc(-c3ccc([N+](=O)[O-])cc3)o2)SC1=S (centres unmarked) [Compound 5850330]
IC50 (HePTP): 95.9 µM
IC50 (VHR): 49 µM
IC50 (TCPTP): 197 µM
IC50 (VHX): 106 µM
IC50 (CD45): 38.7 µM
IC50 (VH1): > 250 µM
IC50 (LAR): 20.8 µM
IC50 (YopH [3]): 11.5 µM
IC50 (LMPTP B): > 300 µM
IC50 (PTP 1B): 38.8 µM
Ki (YopH [1]; Ki(c)): 9.78 ± 3.32 µM

c1ccc(Nc2nc(-c3ccccc3)[n+](-c3ccccc3)s2)cc1 [Compound 5858065]
Ki (YopH [1]; Ki(c)): 1.87 ± 0.924 µM
Ki (YopH [1]; Ki(u)): 2.57 ± 0.563 µM

Cc1ccc(-c2ccc(/C=C3\SC(=S)NC3=O)o2)c([N+](=O)[O-])c1 [Compound 6145062]
Ki (YopH [1]; Ki(u)): 94.1 µM

Cc1cc(C(=O)O)ccc1-c1ccc(/C=C2\SC(=S)NC2=O)o1 [Compound 6338530]
Ki (YopH [1]; Ki(c)): 11.4 µM
Ki (YopH [1]; Ki(u)): 84.2 µM

O=C1NC(=S)S/C1=C\c1ccc(-c2cc(C(=O)O)ccc2Cl)o1 [Compound 6431206]
Ki (YopH [1]; Ki(c)): 16.2 µM

COc1ccc(-c2ccc(/C=C3\SC(=S)NC3=O)o2)cc1[N+](=O)[O-] [Compound 6701338]
Ki (YopH [1]; Ki(c)): 6.53 µM
Ki (YopH [1]; Ki(u)): 9.8 µM

O=Cc1ccc(-c2ccc(C(=O)O)c(O)c2)o1 [Compound 8164075]
YopH inhibition (in words) (YopH [1]): still capable of inhibiting YopH in the low micromolar range
Ki (YopH [1]; Ki(c)): 7.89 µM
Ki (YopH [1]; Ki(u)): 61.2 µM

O=C(O)c1ccccc1O [salicylic acid, reference compound]
Ki (YopH [1]; Ki): 882 µM
